Data as given in US12514832B2, “Methods for using low-dose colchicine after myocardial infarction” (INSTITUT DE CARDIOLOGIE DE MONTREAL, priority 2019, dated 2026).
Like-named read-outs stand apart in the source and are kept apart here.

What was measured:
[1] = system: patients with stable coronary disease; conditions: LoDoCo, 0.5 mg once daily, 532 patients, not placebo-controlled; cited from earlier work
[2] = system: rs6916345 (LINC01108/JARID2, chromosome 6); rs10128117 (SEPHS1, chromosome 10); conditions: for HR, gastrointestinal disorders / coef, gastrointestinal disorders / Coefficient, genetic association with gastrointestinal disorders / HR (hazard ratio), genetic association with gastrointestinal disorders: colchicine treatment arm
[3] = system: high-sensitivity C-reactive protein; assay: COLCOT biomarker substudy: high-sensitivity C-reactive protein; assay type: in vivo, human
Text: Additional prespecified exploratory end points included the change from baseline to 6 months in the high-sensitivity C-reactive protein level and the change from baseline to 12 months in the white-cell count. The C-reactive protein biomarker substudy was implemented after a protocol amendment and was optional for sites and for patients; 34 sites chose to participate in this substudy.
The analysis of the primary end point was repeated in the per-protocol population (i.e., patients without major protocol deviations). Secondary and exploratory end points expressed as time to event were analyzed similarly. The changes from baseline to follow-up were analyzed with the use of an analysis of covariance model with adjustment for baseline value, and estimates of treatment effect are presented with 95% confidence intervals.
High-sensitivity C-reactive protein was measured in a subgroup of only 207 patients at the time of randomization and 6 months later, and the median concentration at trial entry was 4.28 mg per liter. […] The adjusted geometric mean percent changes in the high-sensitivity C-reactive protein level at 6 months after myocardial infarction were −70.0% in the colchicine group and −66.6% in the placebo group, and the placebo-adjusted geometric mean percent change was −10.1% percentage points in the colchicine group (95% CI, −28.6 to 13.4) (Table 8).
In Table 8, the placebo-adjusted geometric mean percent change was obtained by exponentiating the adjusted mean difference between groups from the analysis of covariance model (based on log-transformed data), then subtracting 1 and multiplying by 100.
In addition, the C-reactive protein biomarker sub-study was implemented following a protocol amendment and was optional for sites and for patients; 34 sites accepted to participate in this substudy. There were 213 and 208 patients who provided blood samples at baseline and 6 months, respectively. Paired baseline and 6-month hs-CRP values were available in 207 patients. Clinically available white blood cell counts were obtained from 2598 patients at baseline and 1998 patients at 12 months, and paired baseline and 12-month values were available in 1972 patients. Statistical analysis was conducted on the patients who provided both baseline and follow-up data and as these were exploratory analyses, no missing data was imputed.

[4] = colchicine arm, males + females, on-treatment pgx population
[5] = rs535968 effect allele C vs T, males + females
[6] = rs615497 effect allele G vs A, males + females
[7] = rs825610 effect allele C vs T, males + females
[8] = rs2253619 chr 10, EA T vs NEA C
[9] = rs2253619 effect allele T vs C, males + females
[10] = rs2476986 effect allele T vs G, males + females
[11] = rs2783648 effect allele A vs T, males + females
[12] = rs7894075 effect allele C vs A, males + females
[13] = rs7901525 effect allele A vs C, males + females
[14] = rs7902331 effect allele T vs C, males + females
[15] = rs7916194 effect allele T vs A, males + females
[16] = rs7917549 effect allele A vs G, males + females
[17] = rs7919509 effect allele C vs T, males + females
[18] = rs9423893 effect allele A vs G, males + females
[19] = rs10128117 chr 10, EA A vs NEA T
[20] = rs10128117 effect allele A vs T, males + females
[21] = rs10906346 effect allele A vs G, males + females
[22] = rs11258319 effect allele T vs C, males + females
[23] = rs12210439 chr 6, EA A vs NEA G
[24] = rs41291319 effect allele A vs G, males + females
[25] = rs41291321 effect allele C vs G, males + females
[26] = rs58260827 effect allele CA vs C, males + females
[27] = rs61851591 chr 10, EA A vs NEA C
[28] = rs61851591 effect allele A vs C, males + females
[29] = rs61851592 chr 10, EA T vs NEA C
[30] = rs61851592 effect allele T vs C, males + females
[31] = rs61851593 chr 10, EA C vs NEA T
[32] = rs61851593 effect allele C vs T, males + females
[33] = rs61851598 effect allele A vs G, males + females
[34] = rs61851599 effect allele T vs C, males + females
[35] = rs70993041 chr 6, EA TAA vs NEA T
[36] = rs74795203 chr 10, EA G vs NEA A
[37] = rs74795203 effect allele G vs A, males + females
[38] = rs77006996 chr 10, EA T vs NEA C
[39] = rs77006996 effect allele T vs C, males + females
[40] = rs117874450 effect allele T vs C, males + females
[41] = rs552621122 effect allele A vs ATT, males + females

## COc1cc2c(c(OC)c1OC)-c1ccc(OC)c(=O)cc1[C@@H](NC(C)=O)CC2 [Colchicine, colchicine]
[1]
  cardiovascular events versus no colchicine (in words): fewer cardiovascular events than those not receiving colchicine
[2]; [4]
  Gastrointestinal disorders, hr per effect allele, rs857414 (G vs T): 0.6
  Gastrointestinal disorders, hr per effect allele, rs2327827 (G vs A): 0.5
  Gastrointestinal disorders, hr per effect allele, rs4620126 (G vs A): 0.6
  Gastrointestinal disorders, hr per effect allele, rs6459368 (A vs G): 0.5
  Gastrointestinal disorders, hr per effect allele, rs6903188 (G vs A): 0.6
  Gastrointestinal disorders, hr per effect allele, rs6918045 (T vs C): 0.6
  Gastrointestinal disorders, hr per effect allele, rs6920905 (C vs T): 0.5
  Gastrointestinal disorders, hr per effect allele, rs7747013 (G vs A): 0.5
  Gastrointestinal disorders, hr per effect allele, rs7751771 (C vs T): 0.5
  Gastrointestinal disorders, hr per effect allele, rs7764937 (C vs G): 0.5
  Gastrointestinal disorders, hr per effect allele, rs9349955 (T vs C): 0.5
  Gastrointestinal disorders, hr per effect allele, rs9358042 (T vs C): 0.6
  Gastrointestinal disorders, hr per effect allele, rs9358044 (T vs A): 0.5
  Gastrointestinal disorders, hr per effect allele, rs9370772 (T vs C): 0.6
  Gastrointestinal disorders, hr per effect allele, rs9382993 (C vs T): 0.5
  Gastrointestinal disorders, hr per effect allele, rs9464702 (G vs A): 0.6
  Gastrointestinal disorders, hr per effect allele, rs9476615 (T vs C): 0.6
  Gastrointestinal disorders, hr per effect allele, rs9476616 (G vs C): 0.5
  Gastrointestinal disorders, hr per effect allele, rs12210439 (A vs G): 0.6
  Gastrointestinal disorders, hr per effect allele, rs70993041 (TAA vs T): 0.5
[2]; genotype A/A at rs6916345
  times more likely to have reported gastrointestinal disorders with colchicine than with placebo: 2.4 times
[2]; genotype G/G at rs6916345
  less likely to have reported gastrointestinal disorders with colchicine than with placebo: 57%
[2]; genotype T/A at rs10128117
  times more likely to have reported gastrointestinal disorders with colchicine than with placebo: 3.7 times
[2]; [5]
  HR, gastrointestinal disorders: 2.3
  coef, gastrointestinal disorders: 0.8496
[2]; [6]
  HR, gastrointestinal disorders: 2.4
  coef, gastrointestinal disorders: 0.8683
[2]; [7]
  HR, gastrointestinal disorders: 2.4
  coef, gastrointestinal disorders: 0.8604
[2]; [8]
  Coefficient, genetic association with gastrointestinal disorders: 0.921
  HR (hazard ratio), genetic association with gastrointestinal disorders: 2.51
[2]; [9]
  HR, gastrointestinal disorders: 2.5
  coef, gastrointestinal disorders: 0.9205
[2]; rs2327827 chr 6, EA G vs NEA A
  Coefficient, genetic association with gastrointestinal disorders: −0.620
  HR (hazard ratio), genetic association with gastrointestinal disorders: 0.54
[2]; [10]
  HR, gastrointestinal disorders: 2.4
  coef, gastrointestinal disorders: 0.8717
[2]; [11]
  HR, gastrointestinal disorders: 2.4
  coef, gastrointestinal disorders: 0.8625
[2]; rs6459368 chr 6, EA A vs NEA G
  Coefficient, genetic association with gastrointestinal disorders: −0.602
  HR (hazard ratio), genetic association with gastrointestinal disorders: 0.55
[2]; rs6903188 chr 6, EA G vs NEA A
  Coefficient, genetic association with gastrointestinal disorders: −0.598
  HR (hazard ratio), genetic association with gastrointestinal disorders: 0.55
[2]; rs6916345 chr 6, EA G vs NEA A
  Coefficient, genetic association with gastrointestinal disorders: −0.639
  HR (hazard ratio), genetic association with gastrointestinal disorders: 0.53
[2]; rs6918045 chr 6, EA T vs NEA C
  Coefficient, genetic association with gastrointestinal disorders: −0.598
  HR (hazard ratio), genetic association with gastrointestinal disorders: 0.55
[2]; rs6920905 chr 6, EA C vs NEA T
  Coefficient, genetic association with gastrointestinal disorders: −0.628
  HR (hazard ratio), genetic association with gastrointestinal disorders: 0.53
[2]; rs7747013 chr 6, EA G vs NEA A
  Coefficient, genetic association with gastrointestinal disorders: −0.600
  HR (hazard ratio), genetic association with gastrointestinal disorders: 0.55
[2]; rs7751771 chr 6, EA C vs NEA T
  Coefficient, genetic association with gastrointestinal disorders: −0.598
  HR (hazard ratio), genetic association with gastrointestinal disorders: 0.55
[2]; rs7764937 chr 6, EA C vs NEA G
  Coefficient, genetic association with gastrointestinal disorders: −0.599
  HR (hazard ratio), genetic association with gastrointestinal disorders: 0.55
[2]; [12]
  HR, gastrointestinal disorders: 2.4
  coef, gastrointestinal disorders: 0.8903
[2]; [13]
  HR, gastrointestinal disorders: 2.4
  coef, gastrointestinal disorders: 0.8865
[2]; [14]
  HR, gastrointestinal disorders: 2.4
  coef, gastrointestinal disorders: 0.8596
[2]; [15]
  HR, gastrointestinal disorders: 2.5
  coef, gastrointestinal disorders: 0.9034
[2]; [16]
  HR, gastrointestinal disorders: 2.4
  coef, gastrointestinal disorders: 0.8864
[2]; [17]
  HR, gastrointestinal disorders: 2.5
  coef, gastrointestinal disorders: 0.9034
[2]; rs9349955 chr 6, EA T vs NEA C
  Coefficient, genetic association with gastrointestinal disorders: −0.633
  HR (hazard ratio), genetic association with gastrointestinal disorders: 0.53
[2]; rs9358044 chr 6, EA T vs NEA A
  Coefficient, genetic association with gastrointestinal disorders: −0.610
  HR (hazard ratio), genetic association with gastrointestinal disorders: 0.54
[2]; rs9382993 chr 6, EA C vs NEA T
  Coefficient, genetic association with gastrointestinal disorders: −0.636
  HR (hazard ratio), genetic association with gastrointestinal disorders: 0.53
[2]; [18]
  HR, gastrointestinal disorders: 2.4
  coef, gastrointestinal disorders: 0.8599
[2]; rs9476616 chr 6, EA G vs NEA C
  Coefficient, genetic association with gastrointestinal disorders: −0.607
  HR (hazard ratio), genetic association with gastrointestinal disorders: 0.55
[2]; [19]
  Coefficient, genetic association with gastrointestinal disorders: 0.934
  HR (hazard ratio), genetic association with gastrointestinal disorders: 2.55
[2]; [20]
  HR, gastrointestinal disorders: 2.5
  coef, gastrointestinal disorders: 0.9342
[2]; [21]
  HR, gastrointestinal disorders: 2.5
  coef, gastrointestinal disorders: 0.902
[2]; [22]
  HR, gastrointestinal disorders: 2.4
  coef, gastrointestinal disorders: 0.8718
[2]; [23]
  Coefficient, genetic association with gastrointestinal disorders: −0.594
  HR (hazard ratio), genetic association with gastrointestinal disorders: 0.55
[2]; [24]
  HR, gastrointestinal disorders: 2.4
  coef, gastrointestinal disorders: 0.8843
[2]; [25]
  HR, gastrointestinal disorders: 2.4
  coef, gastrointestinal disorders: 0.8594
[2]; [26]
  HR, gastrointestinal disorders: 2.4
  coef, gastrointestinal disorders: 0.8895
[2]; [27]
  Coefficient, genetic association with gastrointestinal disorders: 0.917
  HR (hazard ratio), genetic association with gastrointestinal disorders: 2.50
[2]; [28]
  HR, gastrointestinal disorders: 2.5
  coef, gastrointestinal disorders: 0.9168
[2]; [29]
  Coefficient, genetic association with gastrointestinal disorders: 0.921
  HR (hazard ratio), genetic association with gastrointestinal disorders: 2.51
[2]; [30]
  HR, gastrointestinal disorders: 2.5
  coef, gastrointestinal disorders: 0.9206
[2]; [31]
  Coefficient, genetic association with gastrointestinal disorders: 0.921
  HR (hazard ratio), genetic association with gastrointestinal disorders: 2.51
[2]; [32]
  HR, gastrointestinal disorders: 2.5
  coef, gastrointestinal disorders: 0.9206
[2]; [33]
  HR, gastrointestinal disorders: 2.4
  coef, gastrointestinal disorders: 0.8657
[2]; [34]
  HR, gastrointestinal disorders: 2.4
  coef, gastrointestinal disorders: 0.8665
[2]; [35]
  Coefficient, genetic association with gastrointestinal disorders: −0.632
  HR (hazard ratio), genetic association with gastrointestinal disorders: 0.53
[2]; [36]
  Coefficient, genetic association with gastrointestinal disorders: 0.921
  HR (hazard ratio), genetic association with gastrointestinal disorders: 2.51
[2]; [37]
  HR, gastrointestinal disorders: 2.5
  coef, gastrointestinal disorders: 0.9207
[2]; [38]
  Coefficient, genetic association with gastrointestinal disorders: 0.917
  HR (hazard ratio), genetic association with gastrointestinal disorders: 2.50
[2]; [39]
  HR, gastrointestinal disorders: 2.5
  coef, gastrointestinal disorders: 0.9167
[2]; [40]
  HR, gastrointestinal disorders: 2.4
  coef, gastrointestinal disorders: 0.8656
[2]; [41]
  HR, gastrointestinal disorders: 2.4
  coef, gastrointestinal disorders: 0.8864
[3]; at 6 months, N=99
  Hs-C reactive protein, geometric mean: 1.37 mg/L
[3]; at Randomization (baseline), N=99
  Hs-C reactive protein, geometric mean: 4.27 mg/L
[3]; baseline to 6 months, N=99
  Hs-C reactive protein, Adjusted GM percent change: −70.0%
[3]; baseline to 6 months, colchicine vs placebo
  Hs-C reactive protein, Placebo-adjusted GM percent change: −10.1%
[3]; over the first 6 months after myocardial infarction, in both trial groups, difference between groups not significant
  reduction in the C-reactive protein level: > 65%
